Laboratory results published in EP2198878A1, “Polypeptide bombesin antagonists” (University Of Miami, priority 2008, dated 2010).
Peptide text beside a SMILES is read from it. * marks the point of attachment. Leuψ(CH2N)ThzNH2 = CC(C)C[C@@H](CN1CSC[C@H]1C(N)=O)N*; Hydrocinnamoyl = O=C(CCc1ccccc1)*

Test system: Human SK-Hep-1 cancers
Experiment: SK-Hep-1 human hepatocellular carcinoma xenograft in nude mice
Type: in vivo, mouse
Conditions: at therapeutic doses
Description: Human SK-Hep-1 cancers were transplanted sc. into both flank areas of female nude mice. The treatment started 47 days after transplantation as follows: Group 1: Control; Group 2: Peptide 14, 20 µg/day;. There were 8 animals in each group. The substances were dissolved in 0.1% dimethyl sulfoxide (DMSO) and diluted with 10% propylene glycol in water. Amounts of 0.1 ml of the solutions were injected once daily sc. The controls received vehicle only. Tumors and body weights were measured weekly and tumor volume was calculated. The experiment was terminated on day 135.

CC(C)C[C@@H](CN1CSC[C@H]1C(N)=O)NC(=O)[C@H](Cc1c[nH]cn1)NC(=O)CNC(=O)[C@@H](NC(=O)[C@H](C)NC(=O)[C@H](Cc1c[nH]c2ccccc12)NC(=O)[C@H](CCC(N)=O)NC(=O)CCc1ccccc1)C(C)C [Peptide 14, Hca-Gln-Trp-Ala-Val-Gly-His-Leu-ψ-Tac-NH2] (Hydrocinnamoyl-QWAVGH-{Leuψ(CH2N)ThzNH2}) was tested, and the toxic effects was “no toxic effects”.
